We go through 26 compounds from US20050014811A1, “Substituted benzimidazole compounds and their use for the treatment of cancer” (Aventis Pharma S.A., priority 2001, published 2005).

Each structure is given as a SMILES string.

Chain of CDK4/CyclinD1 (P11802 whole entry, species assumed): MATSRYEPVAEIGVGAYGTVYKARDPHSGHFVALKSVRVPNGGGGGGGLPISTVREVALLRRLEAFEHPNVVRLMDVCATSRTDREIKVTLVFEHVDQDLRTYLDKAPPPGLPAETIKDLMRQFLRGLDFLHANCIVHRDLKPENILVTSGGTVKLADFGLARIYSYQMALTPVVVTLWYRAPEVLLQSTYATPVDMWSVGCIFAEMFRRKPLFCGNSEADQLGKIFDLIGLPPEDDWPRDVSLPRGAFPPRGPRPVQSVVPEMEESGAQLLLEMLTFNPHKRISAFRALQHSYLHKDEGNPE
Chain of CDK4/CyclinD1 (P24385 whole entry partner, species assumed): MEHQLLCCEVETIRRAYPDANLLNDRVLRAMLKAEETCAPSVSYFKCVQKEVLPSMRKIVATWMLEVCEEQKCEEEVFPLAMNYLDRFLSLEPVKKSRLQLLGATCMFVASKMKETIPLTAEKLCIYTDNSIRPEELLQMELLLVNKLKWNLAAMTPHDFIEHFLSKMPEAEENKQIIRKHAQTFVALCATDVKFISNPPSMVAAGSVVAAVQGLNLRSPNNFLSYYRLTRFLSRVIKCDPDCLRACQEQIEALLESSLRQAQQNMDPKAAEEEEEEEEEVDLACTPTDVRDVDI

One experiment concerns the target CDK4/CyclinD1 (Homo sapiens, UniProt P11802). The experiment can be described thus: CDK4/CyclinD1 Flashplate assay, 96-well format, biotinylated-Rb peptide substrate. The experiment is classed as biochemical. The protocol:
This is a CDK4/CyclinD1 kinase assay in a 96-well Streptavidin-coated Flashplate with a biotinylated-Rb peptide substrate.
(§1) Each point is tested in duplicate
Biotinylated-Rb: Biotin-[…]
• 1. Prepare substrate: 1 mg/ml solution made fresh in PBS. • 2. Add 100 μg per well to the Flashplate. • 3. Incubate for 2 hours at RT. • 4. From 10 mM inhibitor stocks in DMSO, make 1 mM, 300 μM, 100 μM, 30 μM and 10 μM series of dilution in DMSO. • 5. Wash the Flashplate 3 times with 300 μl PBS to remove unbound peptide substrate. • 6. Add the CDK4/CyclinD1 kinase: 70 ng per well, in a volume of 90 μl in kinase buffer (except for “no enzyme” control wells). • 7. Add 1 μl^1 per well of inhibitor to test 10 μM, 3 μM, 1 μM, 0.3 μM and 0.1 μM in final concentration per 100 μl in each well. • 8. Shake gently the Flashplate 1 minute. • 9. Incubate 30 minutes on wet ice. • 10. Initiate the reaction with 10 μl kinase buffer containing 1 μM final cold ATP and 1 μCi final ^33P-ATP per well. • 11. Shake gently the Flashplate 1 minute. • 12. Incubate 45 minutes at RT (no shaking). • 13. Wash the Flashplate 3 times with 300 μl PBS • 14. Count to detect the incorporation of ^33P-ATP by the kinase to the Rb phosphorylation site.
For `O=C(NCCNCCO)Nc1nc2cc(OS(=O)(=O)c3ccc(NCC4CCCO4)cc3)ccc2[nH]1` (centres unmarked) [Example 59-q, 4-[(Tetrahydro-furan-2-ylmethyl)-amino]-benzenesulfonic acid 2-{3-[2-(2-hydroxy-ethylamino)-ethyl]-ureido}-1H-benzoimidazol-5-yl ester], the midpoint of inhibition, the IC50, lay at 0.75 µM.

`COCC(C)NC(=O)Nc1nc2cc(OS(=O)(=O)c3ccc(NCC4CCCO4)cc3)ccc2[nH]1` (centres unmarked) [Example 59-e, 4-[(Tetrahydro-furan-2-ylmethyl)-amino]-benzenesulfonic acid 2-[3-(2-methoxy-1-methyl-ethyl)-ureido]-1H-benzoimidazol-5-yl ester]: it took 1.6 µM to reach half-maximal inhibition (IC50). This IC50 is about 2.1-fold higher than that of the compound before.

Consider `O=C(NCCCO)Nc1nc2cc(OS(=O)(=O)c3ccc(NCC4CCCO4)cc3)ccc2[nH]1` (centres unmarked) [Example 59-c, 4-[(Tetrahydro-furan-2-ylmethyl)-amino]-benzenesulfonic acid 2-[3-(3-hydroxy-propyl)-ureido]-1H-benzoimidazol-5-yl ester], for which the midpoint of inhibition, the IC50, lay at 1 µM.

In turn, `O=C(NCCN1CCOCC1)Nc1nc2cc(OS(=O)(=O)c3ccc(NCc4ccccc4)cc3)ccc2[nH]1` [Example 78-w, 4-Benzylamino-benzenesulfonic acid 2-[3-(2-morpholin-4-yl-ethyl)-ureido]-1H-benzoimidazol-5-yl ester] yielded an inhibition at 10 µM of 90%.

Turning to `COCCNC(=O)Nc1nc2cc(OS(=O)(=O)c3ccc(NCC4CCNCC4)cc3)ccc2[nH]1` [Example 78-v, 4-[(Piperidin-4-ylmethyl)-amino]-benzenesulfonic acid 2-[3-(2-methoxy-ethyl)-ureido]-1H-benzoimidazol-5-yl ester], the inhibition at 10 µM was determined as 46%.

Regarding `COCCNC(=O)Nc1nc2cc(OS(=O)(=O)c3ccc(NC(C)CO)cc3)ccc2[nH]1` (centres unmarked) [Example 78-k, 4-(2-Hydroxy-1-methyl-ethylamino)-benzenesulfonic acid 2-[3-(2-methoxy-ethyl)-ureido]-1H-benzoimidazol-5-yl ester], the inhibition at 10 µM stood at 78%.

For the compound `COCC(C)Nc1ccc(S(=O)(=O)Oc2ccc3[nH]c(NC(=O)C4CC4)nc3c2)cc1` (centres unmarked) [Example 60-f, 4-(2-Methoxy-1-methyl-ethylamino)-benzenesulfonic acid 2-(cyclopropanecarbonyl-amino)-1H-benzoimidazol-5-yl ester], the IC50 was determined as 1 µM.

The compound `Nc1nc2cc(OS(=O)(=O)c3ccc(NC4CCCC4)cc3)ccc2[nH]1` [Example 22, 5-(4-cyclopentylaminophenylsulfonyloxy)-1H-benzimidazole-2-ylamine] registered an IC50 of 1.77 µM.

`O=C(NCCN1CCOCC1)Nc1nc2ccc(OS(=O)(=O)c3ccc(NCc4ccccn4)cc3)cc2[nH]1` [Example 82-h, 4-[(Pyridin-2-ylmethyl)-amino]-benzene sulfonic acid 2-[3-(2-morpholin-4-yl-ethyl)-ureido]-3H-benzimidazol-5-yl ester] showed an inhibition at 10 µM of 92%.

Consider `COC(=O)Nc1nc2cc(OS(=O)(=O)c3cccc(F)c3)ccc2[nH]1` [Example 62-r, 3-Fluoro-benzenesulfonic acid 2-methoxycarbonylamino-1H-benzoimidazol-5-yl ester], for which the half-inhibitory concentration (IC50) came to 2.5 µM.

`CCCCNc1ccc(S(=O)(=O)Oc2ccc3[nH]c(NC(=O)OC)nc3c2)cc1` [Example 12, Methyl-5-(4-butylaminophenylsulfonyloxy) benzimidazole-2-carbamate] registered an inhibition at 10 µM of 14%.

The compound `CCC(C)(C)NC(=O)Nc1nc2cc(OS(=O)(=O)c3ccc(NC4CCCC4)cc3)ccc2[nH]1` [Example 58-z, 4-Cyclopentylamino-benzenesulfonic acid 2-[3-(1,1-dimethyl-propyl)-ureido]-1H-benzoimidazol-5-yl ester] had an IC50 of 2.23 µM. In other words, the single-digit micromolar range.

`CC(CO)Nc1ccc(S(=O)(=O)Oc2ccc3[nH]c(NC(=O)C4CC4)nc3c2)cc1` (centres unmarked) [Example 60-i, 4-(2-Hydroxy-1-methyl-ethylamino)-benzenesulfonic acid 2-(cyclopropanecarbonyl-amino)-1H-benzoimidazol-5-yl ester] returned an IC50 of 0.3 µM.

The compound `O=C(NCCN1CCOCC1)Nc1nc2cc(OS(=O)(=O)c3ccc(NCC4CCNCC4)cc3)ccc2[nH]1` [Example 78-t, 4-[(Piperidin-4-ylmethyl)-amino)-benzenesulfonic acid 2-[3-(2-morpholin-4-yl-ethyl)-ureido]-1H-benzoimidazol-5-yl ester] came in with an inhibition at 10 µM of 55%.

`CN1CCN(CCCNc2ccc(S(=O)(=O)Oc3ccc4[nH]c(NC(=O)C5CC5)nc4c3)cc2)CC1` [Example 60-n, 4-[3-(4-Methyl-piperazin-1-yl)-propylamino]-benzenesulfonic acid 2-(cyclopropanecarbonyl-amino)-1H-benzoimidazol-5-yl ester] showed a concentration for half-maximal inhibition (IC50) of 2 µM.

A further experiment deals with CDK2/CyclinE (Homo sapiens, UniProt P24941). The experiment can be described thus: CDK2/CyclinE Flashplate assay, 96-well format, biotinylated-Rb peptide substrate. The experiment is classed as biochemical. The protocol: This is a CDK2/CyclinE kinase assay in a 96-well Streptavidin-coated Flashplate with a biotinylated-Rb peptide substrate.
as §1
Biotinylated-Rb: Biotin-[…]-OH
• 1. Prepare substrate: 1 mg/ml solution made fresh in PBS. • 2. Add 4 μg per well to the Flashplate. • 3. Incubate for 2 hours at RT. • 4. From 10 mM inhibitor stocks in DMSO, make 1 mM, 300 μM, 100 μM, 30 μM and 10 μM series of dilution in DMSO. • 5. Was the Flashplate 3 times with 300 μl PBS to remove unbound peptide substrate. • 6. Add the CDK2/CyclinE kinase: 200 ng per well, in a volume of 90 μl in kinase buffer (except for “no enzyme” control wells). • 7. Add 1 μl per well of inhibitor to test 10 μM, 3 μM, 1 μM, 0.3 μM and 0.1 μM in final concentration per 100 μl in each well. • 8. Shake gently the Flashplate 1 minute. • 9. Incubate 30 minutes on wet ice. • 10. Initiate the reaction with 10 μl kinase buffer containing 1 μM final cold ATP and 1 μCi final ^33P-ATP per well. • 11. Shake gently the Flashplate 1 minute. • 12. Incubate 45 minutes at RT (no shaking). • 13. Wash the Flashplate 3 times with 300 μl PBS
14. Count to detect the incorporation of ^33P-ATP by the kinase to the Rb phosphorylation site.
In turn, `O=C(NCCNCCO)Nc1nc2cc(OS(=O)(=O)c3ccc(NCC4CCCO4)cc3)ccc2[nH]1` (centres unmarked) [Example 59-q, 4-[(Tetrahydro-furan-2-ylmethyl)-amino]-benzenesulfonic acid 2-{3-[2-(2-hydroxy-ethylamino)-ethyl]-ureido}-1H-benzoimidazol-5-yl ester] returned an IC50 of 0.11 µM.

For the compound `COCC(C)NC(=O)Nc1nc2cc(OS(=O)(=O)c3ccc(NCC4CCCO4)cc3)ccc2[nH]1` (centres unmarked) [Example 59-e, 4-[(Tetrahydro-furan-2-ylmethyl)-amino]-benzenesulfonic acid 2-[3-(2-methoxy-1-methyl-ethyl)-ureido]-1H-benzoimidazol-5-yl ester], half-maximal inhibition (IC50) required 0.1 µM.

In turn, `O=C(NCCCO)Nc1nc2cc(OS(=O)(=O)c3ccc(NCC4CCCO4)cc3)ccc2[nH]1` (centres unmarked) [Example 59-c, 4-[(Tetrahydro-furan-2-ylmethyl)-amino]-benzenesulfonic acid 2-[3-(3-hydroxy-propyl)-ureido]-1H-benzoimidazol-5-yl ester] registered an IC50 of 0.007 µM.

Take `O=C(NCc1ccccc1F)Nc1nc2cc(OS(=O)(=O)c3ccc(NC4CCCC4)cc3)ccc2[nH]1` [Example 58-h, 4-Cyclopentylamino-benzenesulfonic acid 2-[3-(2-fluoro-benzyl)-ureido]-1H-benzoimidazol-5-yl ester]: the IC50 turned out to be 0.1 µM.

`CN(C)CCNC(=O)Nc1nc2cc(OS(=O)(=O)c3ccc(NC4CCCC4)cc3)ccc2[nH]1` [Example 44, 4-Cyclopentylamino-benzenesulfonic acid 2-[3-(2-dimethylamino-ethyl)-ureido]-1H-benzoimidazol-5-yl ester]: 0.13 µM corresponded to half-maximal inhibition (IC50). This IC50 and that of the compound before are within 1.5-fold of each other.

Consider `COC(=O)Nc1nc2cc(OS(=O)(=O)c3ccsc3C(=O)OC)ccc2[nH]1` [Example 62-j, 3-(2-Methoxycarbonylamino-1H-benzoimidazol-5-yloxysulfonyl)-thiophene-2-carboxylic acid methyl ester], for which it took 1.5 µM to reach half-maximal inhibition (IC50).

For `O=C(NCc1cccnc1)Nc1nc2cc(OS(=O)(=O)c3ccc(-n4ccnc4)cc3)ccc2[nH]1` [Example 57-j, 4-Imidazol-1-yl-benzenesulfonic acid 2-(3-pyridin-3-ylmethyl-ureido)-1H-benzoimidazol-5-yl ester], the midpoint of inhibition, the IC50, lay at 0.1 µM.

As to `COC(=O)Nc1nc2cc(OS(=O)(=O)c3ccccc3OC(F)(F)F)ccc2[nH]1` [Example 62-g, 2-Trifluoromethoxy-benzenesulfonic acid 2-methoxycarbonylamino-1H-benzoimidazol-5-yl ester], the IC50 is 1 µM.

Compound `COC(=O)Nc1nc2cc(OS(=O)(=O)c3cccc(OC(F)(F)F)c3)ccc2[nH]1` [Example 62-f, 3-Trifluoromethoxy-benzenesulfonic acid 2-methoxycarbonylamino-1H-benzoimidazol-5-yl ester] gave an IC50 of 1.5 µM.

`COC(=O)Nc1nc2cc(OS(=O)(=O)c3ccc(OCC(=O)N4CCCC4)cc3)ccc2[nH]1` [Example 65, 4-(2-oxo-2-pyrrolidin-1-yl-ethoxy)-benzenesulfonic acid 2-methoxycarbonylamino-1H-benzoimidazol-5-yl-ester] came in with an IC50 of 1 µM. This IC50 lies about 1.5-fold lower than the previous one.

`COC(=O)Nc1nc2cc(OS(=O)(=O)c3ccc(OCC(=O)NCc4ccco4)cc3)ccc2[nH]1` [Example 66-c, 4-{[(furan-2-ylmethyl)-carbamoyl]-methoxy}-benzenesulfonic acid 2-methoxycarbonylamino-1H-benzoimidazol-5-yl ester] registered an IC50 of 1 µM.

`COc1cc(Nc2nc3cc(OS(=O)(=O)c4ccc(NC5CCCC5)cc4)ccc3[nH]2)cc(C(F)(F)F)c1` [Example 70-f, 4-Cyclopentylamino-benzenesulfonic acid 2-(3-methoxy-5-trifluoromethyl-phenylamino)-1H-benzoimidazol-5-yl ester]: 5 µM corresponded to half-maximal inhibition (IC50).

`COC(=O)Nc1nc2cc(OS(=O)(=O)c3ccc(-c4ccon4)s3)ccc2[nH]1` [Example 62-c, 5-Isoxazol-3-yl-thiophene-2-sulfonic acid 2-methoxycarbonylamino-1H-benzoimidazol-5-yl ester] showed a 50% inhibitory concentration (IC50) of 0.8 µM.

Turning to `CCOC(=O)c1cccc(Nc2nc3cc(OS(=O)(=O)c4ccc(NC5CCCC5)cc4)ccc3[nH]2)c1` [Example 70-g, 3-[5-(4-Cyclopentylamino-benzenesulfonyloxy)-1H-benzoimidazol-2-ylamino]-benzoic acid ethyl ester], the IC50 is 1.5 µM.

Broadly, the IC50 is the concentration at which inhibition is half-maximal. A higher IC50 goes with a need for much substance. By inhibition is commonly meant the change of the read-out against control, counted positive when it falls. A low value points to a weak effect.
